{"source": "ChEMBL document CHEMBL5042492", "about": "“Noncovalent CDK12/13 dual inhibitors-based PROTACs degrade CDK12-Cyclin K complex and induce synthetic lethality with PARP inhibitor” (Eur J Med Chem, 2022)", "key": {"[1]": {"biological_target": "CDK12/Cyclin K (Homo sapiens, UniProt Q9NYV4)", "sequence (O75909 whole entry, the tested form may be a part)": "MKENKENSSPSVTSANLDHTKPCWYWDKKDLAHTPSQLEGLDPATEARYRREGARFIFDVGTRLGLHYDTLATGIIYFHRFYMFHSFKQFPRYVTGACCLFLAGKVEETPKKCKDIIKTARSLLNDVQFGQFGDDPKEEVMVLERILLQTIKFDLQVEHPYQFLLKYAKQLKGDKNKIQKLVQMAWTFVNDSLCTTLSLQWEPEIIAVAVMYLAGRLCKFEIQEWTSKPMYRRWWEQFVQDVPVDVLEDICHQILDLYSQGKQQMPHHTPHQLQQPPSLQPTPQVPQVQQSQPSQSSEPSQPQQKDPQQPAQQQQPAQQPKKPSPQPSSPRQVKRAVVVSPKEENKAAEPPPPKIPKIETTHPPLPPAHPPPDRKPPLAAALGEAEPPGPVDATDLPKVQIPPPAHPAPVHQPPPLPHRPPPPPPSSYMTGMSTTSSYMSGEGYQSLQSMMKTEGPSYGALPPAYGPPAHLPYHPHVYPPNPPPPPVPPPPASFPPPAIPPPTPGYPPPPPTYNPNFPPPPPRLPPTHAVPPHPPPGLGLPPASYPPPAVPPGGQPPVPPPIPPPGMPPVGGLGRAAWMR", "sequence (Q9NYV4 whole entry, the tested form may be a part)": "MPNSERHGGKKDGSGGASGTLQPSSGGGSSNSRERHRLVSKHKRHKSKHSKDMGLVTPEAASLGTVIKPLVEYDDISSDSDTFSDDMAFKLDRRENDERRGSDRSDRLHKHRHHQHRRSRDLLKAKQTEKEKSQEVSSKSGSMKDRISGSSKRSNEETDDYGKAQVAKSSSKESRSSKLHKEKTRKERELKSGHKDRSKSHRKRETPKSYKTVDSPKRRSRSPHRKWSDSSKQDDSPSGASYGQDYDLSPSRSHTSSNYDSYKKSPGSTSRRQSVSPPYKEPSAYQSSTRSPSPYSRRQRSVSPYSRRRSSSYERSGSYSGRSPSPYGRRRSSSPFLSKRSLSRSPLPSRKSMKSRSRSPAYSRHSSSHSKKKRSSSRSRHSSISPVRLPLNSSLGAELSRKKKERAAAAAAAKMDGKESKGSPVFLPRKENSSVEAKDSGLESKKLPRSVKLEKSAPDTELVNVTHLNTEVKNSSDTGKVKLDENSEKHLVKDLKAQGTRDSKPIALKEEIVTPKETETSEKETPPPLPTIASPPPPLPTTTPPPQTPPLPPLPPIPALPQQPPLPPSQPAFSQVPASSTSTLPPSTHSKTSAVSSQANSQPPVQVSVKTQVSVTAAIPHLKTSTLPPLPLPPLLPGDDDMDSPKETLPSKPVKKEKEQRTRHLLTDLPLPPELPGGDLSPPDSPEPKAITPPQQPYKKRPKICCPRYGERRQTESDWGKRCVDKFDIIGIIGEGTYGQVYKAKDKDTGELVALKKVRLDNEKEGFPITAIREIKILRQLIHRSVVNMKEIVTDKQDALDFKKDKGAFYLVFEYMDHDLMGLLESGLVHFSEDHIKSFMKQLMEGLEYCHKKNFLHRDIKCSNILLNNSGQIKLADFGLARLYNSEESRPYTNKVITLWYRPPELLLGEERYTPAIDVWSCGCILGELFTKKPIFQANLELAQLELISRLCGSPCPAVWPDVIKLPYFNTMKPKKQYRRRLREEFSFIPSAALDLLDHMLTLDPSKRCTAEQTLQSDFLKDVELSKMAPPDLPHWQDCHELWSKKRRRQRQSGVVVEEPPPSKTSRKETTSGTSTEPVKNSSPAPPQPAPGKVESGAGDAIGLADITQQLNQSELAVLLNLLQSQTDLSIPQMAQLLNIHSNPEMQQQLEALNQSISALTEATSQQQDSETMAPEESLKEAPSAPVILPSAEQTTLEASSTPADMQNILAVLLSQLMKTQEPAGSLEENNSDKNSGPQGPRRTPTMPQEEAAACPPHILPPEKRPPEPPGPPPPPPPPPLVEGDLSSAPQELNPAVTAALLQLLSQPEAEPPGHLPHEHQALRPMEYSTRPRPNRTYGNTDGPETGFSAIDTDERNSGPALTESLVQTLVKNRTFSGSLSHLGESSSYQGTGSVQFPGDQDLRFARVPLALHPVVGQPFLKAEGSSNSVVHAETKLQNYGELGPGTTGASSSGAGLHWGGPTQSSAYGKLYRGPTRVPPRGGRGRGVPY", "test": "Inhibition of human CDK12 (696 to 1082 residues) /cyclinK (1 to 300 residues) using ac-YSPTSPpSYSPTSFpS-YSPTSPpSY-[PEG2]-RR-amid peptide as substrate in presence of ATP measured after 2 hrs by ADP-Glo kinase assay", "type": "protein-complex assay"}, "[2]": {"biological_target": "T1, Protein cereblon/Cyclin-K/Cyclin-dependent kinase 12 (Homo sapiens, UniProt O75909+Q9NYV4+Q96SW2)", "T1 sequence (O75909 whole entry, looked up)": "as the sequence (O75909 whole entry, the tested form may be a part) above", "T1 sequence (Q96SW2 whole entry, looked up)": "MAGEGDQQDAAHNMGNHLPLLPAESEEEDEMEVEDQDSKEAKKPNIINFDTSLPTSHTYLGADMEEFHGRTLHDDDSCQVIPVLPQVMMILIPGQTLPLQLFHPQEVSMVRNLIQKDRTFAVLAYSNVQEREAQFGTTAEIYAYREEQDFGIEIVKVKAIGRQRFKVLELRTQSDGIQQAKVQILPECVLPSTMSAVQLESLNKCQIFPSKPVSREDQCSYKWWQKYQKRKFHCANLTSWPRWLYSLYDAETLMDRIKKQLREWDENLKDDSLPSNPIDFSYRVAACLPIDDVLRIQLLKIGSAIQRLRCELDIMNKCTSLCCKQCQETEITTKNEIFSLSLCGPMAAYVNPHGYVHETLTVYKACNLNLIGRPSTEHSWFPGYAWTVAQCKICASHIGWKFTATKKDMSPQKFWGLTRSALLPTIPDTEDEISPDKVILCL", "T1 sequence (Q9NYV4 whole entry, looked up)": "as the sequence (Q9NYV4 whole entry, the tested form may be a part) above", "test": "Protac activity at human CRBN/CDK12/CycK in human MDA-MB-231 cells assessed as downregulation of Mcl-1 level upto 30 uM measured after 24 hrs by Western blotting assay", "type": "cell-based", "conditions": "dose microM <=30, time 24.0 hrs"}, "[3]": {"biological_target": "T1, Protein cereblon/Cyclin-K/Cyclin-dependent kinase 12", "test": "Protac activity at human CRBN/CDK12/CycK in human Bel-7402 cells assessed as RNAP2 CTD Ser2 phosphorylation level at 0.1 to 30 uM measured after 24 hrs by Western blotting assay", "type": "cell-based", "conditions": "dose 0.1-30 µM"}, "[4]": {"biological_target": "T1, Protein cereblon/Cyclin-K/Cyclin-dependent kinase 12", "test": "Protac activity at human CRBN/CDK12/CycK in human Bel-7402 cells assessed as downregulation of Mcl-1 level upto 30 uM measured after 24 hrs by Western blotting assay", "type": "cell-based", "conditions": "dose microM <=30, time 24.0 hrs"}, "[5]": {"biological_target": "T1, Protein cereblon/Cyclin-K/Cyclin-dependent kinase 12", "test": "Protac activity at human CRBN/CDK12/CycK in human MDA-MB-231 cells assessed as RNAP2 CTD Ser2 phosphorylation level at 0.1 to 30 uM measured after 24 hrs by Western blotting assay", "type": "cell-based", "conditions": "dose 0.1-30 µM"}, "[6]": {"biological_target": "T1, Protein cereblon/Cyclin-K/Cyclin-dependent kinase 12", "test": "Protac activity at human CRBN/CDK12/CycK in human Bel-7402 cells assessed as degradation of CDK12 at 3 uM measured after 24 hrs by Western blotting assay", "type": "cell-based"}, "[7]": {"biological_target": "T1, Protein cereblon/Cyclin-K/Cyclin-dependent kinase 12", "test": "Protac activity at human CRBN/CDK12/CycK in human MDA-MB-231 cells assessed as degradation of CDK12 at 3 uM measured after 24 hrs by Western blotting assay", "type": "cell-based"}}, "note": "Activity calls are given as the source filed them. No cut-off for these calls is given here.", "data": [{"smiles": "COCCOCCOc1cc2[nH]c(CNc3nc(N4CCOCC4)nc4c3ncn4C(C)C)nc2cc1F", "values": [{"measurement": "IC50", "setting": "[1]", "value": 237, "unit": "nM"}]}, {"smiles": "COCCOCCOc1cc2[nH]c(CNc3nc(OCC[C@@H]4CCCCN4)nc4c3ncn4C(C)C)nc2cc1F", "values": [{"measurement": "IC50", "setting": "[1]", "value": 66.4, "unit": "nM"}]}, {"smiles": "COCCOCCOc1cc2[nH]c(CNc3nc(N4CCOCC4)nc4c3ncn4-c3cnn(C)c3)nc2cc1F", "values": [{"measurement": "IC50", "setting": "[1]", "value": 411, "unit": "nM"}]}, {"smiles": "CN(C)C/C=C/C(=O)Nc1ccc(C(=O)N2CCC[C@@H](Nc3ncc(Cl)c(-c4c[nH]c5ccccc45)n3)C2)cc1", "values": [{"measurement": "Activity", "setting": "[2]", "value": "Active"}, {"measurement": "Activity", "setting": "[3]", "value": "Active"}, {"measurement": "Activity", "setting": "[4]", "value": "Active"}, {"measurement": "Activity", "setting": "[5]", "value": "Active"}]}, {"smiles": "CC(C)n1cnc2c(NCc3nc4cc(F)c(NCCCCCCCCCCNC(=O)COc5cccc6c5C(=O)N(C5CCC(=O)NC5=O)C6=O)cc4[nH]3)nc(N3CCOCC3)nc21", "note": "(centres undefined)", "values": [{"measurement": "Activity", "setting": "[6]", "value": "Active"}, {"measurement": "Activity", "setting": "[7]", "value": "Active"}]}]}
